Data as given in publication PMC12668304, “A Triple Threat Against Ovarian Cancer: Os(II)‐Pt(IV)‐Ceritinib Conjugates for Photodynamic Therapy, Chemotherapy, and Immunogenic Cell Death Induction” (Angewandte Chemie (International Ed. in English), 2025).

Test system: MCA205 cells co-incubated with RAW 264.7 macrophages
Experiment: Phagocytosis of treated cancer cells by macrophages (flow cytometry, confocal microscopy)
Format: cell-based, mouse
Conditions: IC50,48 h concentration, 3 h co-incubation
Experimental: All compounds were incubated for 4 h with the cells, which were either irradiated at 740 nm (1 h) or kept in the dark. 16 h post‐treatment, cancer cells were stained with CellMask Green, while RAW 264.7 macrophages were stained with CellMask DeepRed. Co‐culture was performed at a 1 : 2 (macrophage : tumour cells) ratio for 3 h. Thereafter, the phagocytosis was evaluated by flow cytometry and confocal microscopy.
To quantify this phagocytic response, a flow cytometry assay was performed, see Figure 12. MCA205 cells were incubated with Os‐Pt‐Cer for 4 h, after which half of the samples were either kept in the dark (−L) or irradiated (+L) for 1 h (740 nm). After an additional 16 h, the cells were co‐incubated with RAW 264.7 macrophages for 3 h. […] Flow cytometry analysis was used to quantify phagocytosis, identifying double‐positive (green–red) events as phagocytic macrophages. […]
analyzed using an ATP assay kit according to the manufacturer’s instructions. Luminescence was measured on a SPARK multimode reader (Tecan). […]
MCA205 and A2780 cells were seeded on µ-slide 8 well (Ibidi) (100 µl/well) and left for 24 h to attach to the bottom at a density of 2 x 10^4 cells/well and incubated overnight. […] 30 minutes before starting confocal fluorescence microscopy analysis, Hoechst was added at a final concentration of 1 µg/mL. […] Images were analysed with LAS X Film FCS software. […]

Structure (SMILES) | phagocytosis, double‐positive (green–red) events (upper right quadrant) (+L (740 nm, 1 h)) | phagocytosis, double‐positive (green–red) events (upper right quadrant) (light condition not given)
C=Cc1c(C)c2cc3nc(c(CC(=O)O)c4[nH]c(cc5nc(cc1[nH]2)C(C)=C5CC)c(C)c4C(=O)O)[C@@H](CCC(=O)O)[C@@H]3C [Ce6, Chlorin e6] | 7.4% | –
O=C1[O][Pt]2([NH][C@@H]3CCCC[C@H]3[NH]2)[O]C1=O [Oxaliplatin] | – | 6.0%
